# Results as given in PMC3331898 (2012).
# Biological target: T1, retinoic acid receptor-related orphan receptor γ (RORγ) (Homo sapiens, UniProt P51449)
# T1 sequence (P51449 265-507 limits assumed): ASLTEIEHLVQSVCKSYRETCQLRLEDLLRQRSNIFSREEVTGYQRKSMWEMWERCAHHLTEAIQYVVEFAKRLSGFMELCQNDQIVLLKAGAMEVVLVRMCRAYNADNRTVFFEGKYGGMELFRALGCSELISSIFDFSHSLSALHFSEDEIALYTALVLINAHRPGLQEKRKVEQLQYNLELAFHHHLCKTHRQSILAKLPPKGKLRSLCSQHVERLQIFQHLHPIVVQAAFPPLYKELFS
# Format: binding
smiles,measurement,value
C[C@H]1O[C@@H](O[C@H]2[C@@H](O)C[C@H](O[C@H]3[C@@H](O)C[C@H](O[C@H]4CC[C@@]5(C)[C@H](CC[C@@H]6[C@@H]5C[C@@H](O)[C@]5(C)[C@@H](C7=CC(=O)OC7)CC[C@]65O)C4)O[C@@H]3C)O[C@@H]2C)C[C@H](O)[C@@H]1O [digoxin],differential HDX mass spectrometry,"HDX) mass spectrometry analysis of the RORγ LBD in the presence and absence of digoxin, T1317, or SR2211"
